Measurements from PMC4960549, “Structure-Activity Analysis of Gram-positive Bacterium-producing Lasso Peptides with Anti-mycobacterial Activity” (Scientific Reports, 2016).
Positions of bridges follow the written chain, without caps; N, C: chain ends. No end group written: not given here.

System: M. smegmatis 607
Experiment: Anti-mycobacterial activity by paper disk method
Type: cell-based, Mycobacterium smegmatis
Conditions: for Anti-mycobacterial activity compared with lariatin A (in words): M. smegmatis, paper disk method, 1 μg per disk; for Inhibition zone: paper disk (6 mm) containing 1 μg peptide on Middlebrook 7H9 agar spread with M. smegmatis 607 (approx. 1.5 × 10^8 CFU/ml), 37 °C, 48 hr, diameter of inhibitory zone, average from two independent experiments, '-' = no zone (activity lost)
Procedure: To gain insights into the structure-activity relationships of lariatin A, anti-mycobacterial activity of 20 lariatin variants against M. smegmatis was evaluated by paper disk method (Fig. 4). Among lariatin variants related to the macrolactam ring, the anti-mycobacterial activity of Tyr6 variant only was lost, while the replacement of Tyr6 with tryptophan and phenylalanine didn’t affect the anti-mycobacterial activity. […] Furthermore, Gly11 and Asn14 were closely involved in the anti-mycobacterial activity because of the loss of the activity in their variants. […] Thus, it was shown that the positively charged amino acid residue was favorable at the residue at position 17. Also, it was shown that the amino acid residue without bulky or branched side chains at the residues at positions 15, 16 and 18 contributed to the higher potency.
Figure 4 Anti-mycobacterial activity of lariatin variants. Anti-mycobacterial activities of lariatin variants were evaluated by a paper disk method. Value of the inhibition zone against M. smegmatis and relative activity in comparison with lariatin A were shown here. Bar color represents potency of each compound when the value of inhibition zone of lariatin A is set up at 100%: yellow, <50% activity; green, 50–120% activity; blue, >120% activity. Value of inhibition zone represents the average from two independent experiments. TEXT PRINTED IN THE PICTURE: Lariatin A: Inhibition zone (mm): 21.8 | S2A: Inhibition zone (mm): 20.4 | Q3A: Inhibition zone (mm): 16.3 | L4A: Inhibition zone (mm): 8.9 | V5A: Inhibition zone (mm): 11.3 | Y6A: Inhibition zone (mm): - | V10A: Inhibition zone (mm): 7.6 | G11A: Inhibition zone (mm): - | H12A: Inhibition zone (mm): 12.7 | S13A: Inhibition zone (mm): 19.8 | N14A: Inhibition zone (mm): - | V15A: Inhibition zone (mm): 20.7 | I16A: Inhibition zone (mm): 24.0 | K17A: Inhibition zone (mm): 10.4 | P18A: Inhibition zone (mm): 29.6 | V15A/I16A: Inhibition zone (mm): 29.3 | Y6F: Inhibition zone (mm): 30.7 | Y6W: Inhibition zone (mm): 22.8 | R7K: Inhibition zone (mm): 26.5 | W9Y: Inhibition zone (mm): 14.9 | K17R: Inhibition zone (mm): 31.1
Antimicrobial activity of lariatins against M. smegmatis 607 was measured by a paper disk method. The cell suspension of M. smegmatis 607 was adjusted to approximately 1.5 × 10^8 CFU ml^−1 in a Middlebrook 7H9 broth (Difco, Becton Dickinson, Sparks, MD, USA) containing 0.05% Tween 80 and 10% ADC enrichment (5.0% bovine albumin fraction V, 2.0% dextrose and catalase (30 μg/ml)), and were spread on a Middlebrook 7H9 agar plate. A paper disk (6 ϕ mm, Advantec Toyo Kaisha, Ltd. Tokyo, Japan) containing 1 μg lariatin variants was placed on the agar plate and was incubated at 37 °C for 48 hr. A diameter (mm) of the inhibitory zone observed around the paper disk was measured to evaluate the anti-mycobacterial activity.

P18A: lariatin A variant, alanine substitution at position 18 (GSQLVYREWVGHSNVIKA; lactam N-8 (inferred); not fully specified; ends not checked; UniProt H7C8I3 27-44, looked up, variant P18A)
Anti-mycobacterial activity compared with lariatin A (in words): more potent activity than lariatin A | Inhibition zone: 29.6 mm

Y6F: lariatin A variant, Tyr6 replaced with phenylalanine (GSQLVFREWVGHSNVIKP; lactam N-8 (inferred); ends not checked; UniProt H7C8I3 27-44, looked up, variant Y6F)
Inhibition zone: 30.7 mm

K17A: lariatin A variant, alanine substitution at position 17 (GSQLVYREWVGHSNVIAP; lactam N-8 (inferred); not fully specified; ends not checked; UniProt H7C8I3 27-44, looked up, variant K17A)
Anti-mycobacterial activity compared with lariatin A (in words): weaker activity | Inhibition zone: 10.4 mm

S13A: lariatin A variant, alanine substitution at position 13 (GSQLVYREWVGHANVIKP; lactam N-8 (inferred); not fully specified; ends not checked; UniProt H7C8I3 27-44, looked up, variant S13A)
Inhibition zone: 19.8 mm

Lariatin A (GSQLVYREWVGHSNVIKP; lactam N-8 (inferred); ends not checked; UniProt H7C8I3 27-44, looked up) [18-residue lasso peptide from Rhodococcus jostii K01-B0171, macrolactam ring between Gly1 and Glu8, C-terminal tail threaded through ring]
Inhibition zone: 21.8 mm

V15A: lariatin A variant, alanine substitution at position 15 (GSQLVYREWVGHSNAIKP; lactam N-8 (inferred); not fully specified; ends not checked; UniProt H7C8I3 27-44, looked up, variant V15A)
Inhibition zone: 20.7 mm

H12A: lariatin A variant, alanine substitution at position 12 (GSQLVYREWVGASNVIKP; lactam N-8 (inferred); not fully specified; ends not checked; UniProt H7C8I3 27-44, looked up, variant H12A)
Inhibition zone: 12.7 mm
